Assay in all cases: NCI-60 cell line screen, 48 h
In experiment [1] the test system is A498.
For experiment [2], the system named is COLO 205.
Experiment [3] deals with DU-145.
Experiment [4] relates to HCT-15.
The subject of experiment [5] is HOP-92.
The subject of experiment [6] is HT-29.
Experiment [7] has as its system Hs-578T.
In experiment [8] the test system is K562.
The subject of experiment [9] is KM12.
Experiment [10] has as its system MDA-MB-231.
Experiment [11] deals with NCI-H522.
Experiment [12] concerns NCI/ADR-RES.
For experiment [13], the system named is OVCAR-8.
The test system of experiment [14] is SF-539.
Experiment [15] concerns SK-MEL-28.
Experiment [16] deals with SK-MEL-5.
Experiment [17] has as its system SNB-75.
Experiment [18] concerns SR.
The subject of experiment [19] is SW-620.
In experiment [20] the test system is M14.

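Method: 48-hour compound exposure of cells in 96-well plates, five concentrations, linear interpolation of endpoints. Here, GI50 denotes the concentration required for 50% inhibition of growth.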 Activity calls are given as the source filed them. No stated cut-off is given here; in the data, active = GI50 up to about 1.1 µM and inactive = higher.

On to `Nc1nc(Cl)c(/C=N\O)c(NCC2(CO)CC(=O)C2)n1`, for which the GI50 is 34.4 µM (inactive) in experiment [1]; > 100 µM (inactive) in [2]; 77.4 µM (inactive) in [3]; more than 100 µM in [4]; 40.8 µM (inactive) in experiment [5]; 80 µM (inactive) in experiment [6]. For the same compound, the GI50 in experiment [7] is 18.7 µM (inactive); in experiment [8] it was 54.2 µM (inactive); in experiment [9], 24.5 µM (inactive); in experiment [10] it was 80.7 µM (inactive); in experiment [11], 68.7 µM (inactive); in [12] it was > 100 µM (inactive). Besides, the GI50 in experiment [13] was > 100 µM (inactive); in [14], 78.2 µM (inactive); in experiment [15], > 100 µM (inactive); in [16] it was 76.7 µM (inactive); in [17] it was 31.1 µM (inactive); in experiment [18], 3.85 µM (inactive). The GI50 in [19] is 89.1 µM (inactive).

As to `CC1(C)C2CC3C4CC5(Nc6ccccc6C5N41)[C@]3(C)CC2=O` (stereo not given in full), the GI50 in [1] was > 50 µM (inactive); in [2], > 50 µM (inactive); in experiment [3] it was > 50 µM (inactive); in experiment [4] it was more than 50 µM; in [5], 12.5 µM (inactive); in experiment [6] it was > 50 µM (inactive). In addition, the GI50 in experiment [7], in experiment [8], in [9], in [10], in experiment [11] and in [12] was > 50 µM (inactive) in each case. Besides, the GI50 in experiment [13], in experiment [14], in experiment [15], in experiment [16], in [17] and in experiment [18] was > 50 µM (inactive) each time. The GI50 in experiment [19] was > 50 µM (inactive).

`COC(=O)/C=C/c1ccc2c(c1)CCC2`: the GI50 in [1] was 27.2 µM (inactive); in experiment [3] it was 43.3 µM (inactive); in experiment [4] it was 17.3 µM; in [5], 5.28 µM (inactive); in experiment [6] it was 26.8 µM (inactive); in experiment [7], > 100 µM (inactive). The GI50 in experiment [8] is 30.8 µM (inactive); in experiment [20], 64.3 µM (inactive); in experiment [10] it was 63.2 µM (inactive); in experiment [11] it was 22.1 µM (inactive); in experiment [12], 24.5 µM (inactive); in [13] it was 53.5 µM (inactive). The GI50 in [14] is 72.8 µM (inactive); in experiment [15], > 100 µM (inactive); in experiment [16], 30.2 µM (inactive); in experiment [17] it was 18.7 µM (inactive); in [18], 36.7 µM (inactive); in experiment [19], 5.13 µM (inactive).

Consider `Cc1ccc2nc(-c3ccc(-c4nc5ccc(C)cc5o4)c(O)c3)oc2c1`, for which the GI50 is > 100 µM (inactive) in [1]; > 100 µM (inactive) in experiment [2]; > 100 µM (inactive) in experiment [3]; more than 100 µM in [4]; > 100 µM (inactive) in experiment [5]; > 100 µM (inactive) in experiment [7]. Moreover, the GI50 in [8], in experiment [20], in experiment [10], in experiment [12], in experiment [13] and in experiment [14] was > 100 µM (inactive) throughout. For the same compound, the GI50 in experiment [15], in experiment [16], in experiment [17], in experiment [18] and in experiment [19] was > 100 µM (inactive) in each case.

For the compound `CCOC(=O)c1nc2ccc(C(F)(F)F)cc2nc1Oc1ccc(C(=O)OC)cc1`, the GI50 in experiment [1] was > 100 µM (inactive); in [2], > 100 µM (inactive); in experiment [3], 55.7 µM (inactive); in [4], more than 100 µM; in [5], 43.2 µM (inactive); in [6] it was 81.7 µM (inactive). Moreover, the GI50 in experiment [7] is 33.2 µM (inactive); in [8] it was > 100 µM (inactive); in experiment [9] it was 56.4 µM (inactive); in [20], 57.1 µM (inactive); in experiment [10] it was 80.7 µM (inactive); in [12], > 100 µM (inactive). For the same compound, the GI50 in [13] is > 100 µM (inactive); in experiment [14], 77.8 µM (inactive); in [15], 86.1 µM (inactive); in experiment [16] it was 43.1 µM (inactive); in experiment [17], 50.4 µM (inactive); in experiment [18] it was > 100 µM (inactive). Further, the GI50 in experiment [19] was > 100 µM (inactive).

`COc1ccc2c(c1)CCc1c-2[nH]c2ccc(OC)cc12`: the GI50 in experiment [1] was > 100 µM (inactive); in [2] it was > 100 µM (inactive); in experiment [3], > 100 µM (inactive); in experiment [4] it was more than 100 µM; in experiment [5] it was > 100 µM (inactive); in [6], 7.21 µM (inactive). The GI50 in experiment [7], in experiment [8], in [9], in [20], in experiment [10] and in [11] was > 100 µM (inactive) throughout. For the same compound, the GI50 in experiment [12], in experiment [13], in experiment [15], in experiment [16], in experiment [17] and in experiment [18] was > 100 µM (inactive) each time. Also, the GI50 in experiment [19] was > 100 µM (inactive).

With `CC(C)(C)C(=O)C(C(c1ccccc1)N1CCOCC1)N1CCOCC1` (stereo not given), the GI50 is > 100 µM (inactive) in [1]; > 100 µM (inactive) in experiment [3]; more than 100 µM in experiment [4]; > 100 µM (inactive) in experiment [5]; > 100 µM (inactive) in experiment [6]; > 100 µM (inactive) in experiment [7]. Further, the GI50 in experiment [8], in experiment [9], in [20], in [10], in [11] and in experiment [12] was > 100 µM (inactive) in each case. Moreover, the GI50 in [13], in [15], in experiment [17], in [18] and in experiment [19] was > 100 µM (inactive) throughout.

In the case of `CN1CN(c2ccccc2)C2(CCN(Cc3nc4ccccc4s3)CC2)C1=O`, the GI50 is 15.9 µM (inactive) in [1]; 18.1 µM (inactive) in experiment [2]; 17.9 µM (inactive) in experiment [3]; 18.8 µM in [4]; 15 µM (inactive) in experiment [5]; 17 µM (inactive) in experiment [6]. For the same compound, the GI50 in experiment [7] was 18.7 µM (inactive); in experiment [8], 13.8 µM (inactive); in [20], 13.5 µM (inactive); in [10], 14.1 µM (inactive); in experiment [12] it was 15.5 µM (inactive); in [13], 14.4 µM (inactive). Further, the GI50 in experiment [14] is 17.8 µM (inactive); in experiment [15], 17.3 µM (inactive); in [16] it was 16.1 µM (inactive); in experiment [17] it was 16.7 µM (inactive); in experiment [18] it was 14.8 µM (inactive).

As to `O=C(NN=C(c1ccccc1)c1ccccc1)/C(O)=C/C(=O)c1ccc(Cl)cc1`, the GI50 was 16.5 µM (inactive) in experiment [1]; 19.9 µM (inactive) in [2]; 73.1 µM (inactive) in experiment [3]; 24.7 µM in experiment [4]; 44.3 µM (inactive) in [6]; 27.2 µM (inactive) in experiment [7]. In addition, the GI50 in experiment [8] was 43.5 µM (inactive); in [9], 45 µM (inactive); in [20] it was > 100 µM (inactive); in experiment [10] it was 11.9 µM (inactive); in [11], 13.5 µM (inactive); in experiment [12], 20.7 µM (inactive). Also, the GI50 was 30.1 µM (inactive) in [13]; 26.4 µM (inactive) in experiment [14]; 29.1 µM (inactive) in [16]; 33 µM (inactive) in [17]; 39.2 µM (inactive) in [18].

Take `Oc1ccc2oc3c(O)c4ccccc4cc3c2c1`: the GI50 is 2.45 µM (inactive) in experiment [1]; 10.6 µM (inactive) in experiment [2]; 3.27 µM (inactive) in experiment [3]; 1.98 µM in experiment [4]; 10.7 µM (inactive) in [5]; 17.5 µM (inactive) in experiment [6]. The GI50 is 23.2 µM (inactive) in [7]; 0.0632 µM (active) in [8]; 2.22 µM (inactive) in experiment [9]; 3.49 µM (inactive) in experiment [20]; 12.8 µM (inactive) in [10]; 1.01 µM (active) in experiment [11]. Further, the GI50 in [12] is 3.03 µM (inactive); in experiment [13] it was 4.56 µM (inactive); in experiment [14], 1.75 µM (inactive); in experiment [15], 7.24 µM (inactive); in experiment [16] it was 2.85 µM (inactive); in experiment [18], 1.72 µM (inactive). The GI50 in experiment [19] is 0.69 µM (active).

For the compound `N#Cc1cc(N(CCCl)CCCl)c([N+](=O)[O-])cc1[N+](=O)[O-]`, the GI50 in experiment [1] is > 100 µM (inactive); in [2], > 100 µM (inactive); in [3], 32.4 µM (inactive); in experiment [4], more than 100 µM; in experiment [5] it was > 100 µM (inactive); in experiment [6], > 100 µM (inactive). Further, the GI50 in experiment [7] is > 100 µM (inactive); in [8], > 100 µM (inactive); in experiment [9], > 100 µM (inactive); in [20], > 100 µM (inactive); in experiment [10] it was > 100 µM (inactive); in [11], 87.9 µM (inactive). The GI50 in experiment [12] is > 100 µM (inactive); in [13], > 100 µM (inactive); in experiment [14] it was > 100 µM (inactive); in experiment [15], > 100 µM (inactive); in experiment [16] it was > 100 µM (inactive); in [18], 2.89 µM (inactive). The GI50 in experiment [19] is > 100 µM (inactive).

For the origin of these results see ChEMBL document CHEMBL1201862, “PubChem BioAssay data set” (2004).
